Tested on: NOMO-1
Assay: cell viability (% survival relative to DMSO control, bortezomib = 0%); higher = less cytotoxic
Conditions: 10000 nM; 72 h
Procedure, shortened: (§1)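 In 384-well plates pre-printed with compounds at 1, 10, 100, 1000 or 10000 nM, duplicate wells received cells from 10 AML and 5 CML lines at densities within the linear growth range. The plates stayed at 37 °C with 5% CO2 for 72 h before CellTiter-Glo luminescence was recorded. Each entry is averaged percent survival. Scaling placed vehicle at 100% and a 10 µM positive control at 0%.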

SMILES	cell viability [%]
O=C(O)c1cc(Cl)cc(Cl)c1O [3,5-Dichlorosalicylic Acid]	98.7
O=C(O)C(=O)CBr [3-bromopyruvic acid]	98
NS(=O)(=O)c1ccc([N+](=O)[O-])cc1 [4-Nitrobenzenesulfonamide]	98.3
Cc1ccccc1C(C(=O)NC1CCCCC1)N(C(=O)Cn1ccnc1C)c1cccc(F)c1 (configuration not stated) [AGI-5198]	102
CC(C)(C#N)c1cc(Cn2cncn2)cc(C(C)(C)C#N)c1 [Anastrozole]	102
O=C(O)C1=CC(=C(c2ccc(O)c(C(=O)O)c2)c2ccc(O)c(C(=O)O)c2)C=CC1=O [Aurintricarboxylic acid]	80.9

Tested on: KU-812
Assay: as above
Conditions: 1 nM; 72 h
Procedure, shortened: as §1

SMILES	cell viability [%]
CN(C)C(=O)[C@H](O)[C@H](Cc1ccccc1)NC(=O)c1cc2cc(Cl)ccc2[nH]1	98.1
COc1ccc(CNC(=O)Nc2ncc([N+](=O)[O-])s2)cc1	97.8
CCOP(=O)(OCC)C(=Cc1cc(C(C)(C)C)c(O)c(C(C)(C)C)c1)P(=O)(OCC)OCC	98.4
COc1ccc(-c2ccccc2)cc1NS(=O)(=O)c1cc(Cl)cc(Cl)c1O	98.2
C[C@H](NC(=O)c1sccc1OCc1ccc(Cl)cc1)c1ccccc1	84.6
O=C(O)c1cc(Cl)cc(Cl)c1O [3,5-Dichlorosalicylic Acid]	90.5
O=C(O)C(=O)CBr [3-bromopyruvic acid]	88
NS(=O)(=O)c1ccc([N+](=O)[O-])cc1 [4-Nitrobenzenesulfonamide]	102
Cc1ccccc1C(C(=O)NC1CCCCC1)N(C(=O)Cn1ccnc1C)c1cccc(F)c1 (configuration not stated) [AGI-5198]	97.7
CC(C)(C#N)c1cc(Cn2cncn2)cc(C(C)(C)C#N)c1 [Anastrozole]	86.1
O=C(O)C1=CC(=C(c2ccc(O)c(C(=O)O)c2)c2ccc(O)c(C(=O)O)c2)C=CC1=O [Aurintricarboxylic acid]	98

Same assay, conditions: 10 nM; 72 h

SMILES	cell viability [%]
CN(C)C(=O)[C@H](O)[C@H](Cc1ccccc1)NC(=O)c1cc2cc(Cl)ccc2[nH]1	96
COc1ccc(CNC(=O)Nc2ncc([N+](=O)[O-])s2)cc1	107
CCOP(=O)(OCC)C(=Cc1cc(C(C)(C)C)c(O)c(C(C)(C)C)c1)P(=O)(OCC)OCC	92.3
COc1ccc(-c2ccccc2)cc1NS(=O)(=O)c1cc(Cl)cc(Cl)c1O	84.4
C[C@H](NC(=O)c1sccc1OCc1ccc(Cl)cc1)c1ccccc1	96.1
O=C(O)c1cc(Cl)cc(Cl)c1O [3,5-Dichlorosalicylic Acid]	93.7
O=C(O)C(=O)CBr [3-bromopyruvic acid]	88.9
NS(=O)(=O)c1ccc([N+](=O)[O-])cc1 [4-Nitrobenzenesulfonamide]	95.7
Cc1ccccc1C(C(=O)NC1CCCCC1)N(C(=O)Cn1ccnc1C)c1cccc(F)c1 (configuration not stated) [AGI-5198]	105
CC(C)(C#N)c1cc(Cn2cncn2)cc(C(C)(C)C#N)c1 [Anastrozole]	90.6
O=C(O)C1=CC(=C(c2ccc(O)c(C(=O)O)c2)c2ccc(O)c(C(=O)O)c2)C=CC1=O [Aurintricarboxylic acid]	102

Same assay, conditions: 100 nM; 72 h

SMILES	cell viability [%]
CN(C)C(=O)[C@H](O)[C@H](Cc1ccccc1)NC(=O)c1cc2cc(Cl)ccc2[nH]1	102
COc1ccc(CNC(=O)Nc2ncc([N+](=O)[O-])s2)cc1	92.1
CCOP(=O)(OCC)C(=Cc1cc(C(C)(C)C)c(O)c(C(C)(C)C)c1)P(=O)(OCC)OCC	123
COc1ccc(-c2ccccc2)cc1NS(=O)(=O)c1cc(Cl)cc(Cl)c1O	105
C[C@H](NC(=O)c1sccc1OCc1ccc(Cl)cc1)c1ccccc1	94.8
O=C(O)c1cc(Cl)cc(Cl)c1O [3,5-Dichlorosalicylic Acid]	95.8
O=C(O)C(=O)CBr [3-bromopyruvic acid]	99.8
NS(=O)(=O)c1ccc([N+](=O)[O-])cc1 [4-Nitrobenzenesulfonamide]	105
Cc1ccccc1C(C(=O)NC1CCCCC1)N(C(=O)Cn1ccnc1C)c1cccc(F)c1 (configuration not stated) [AGI-5198]	109
CC(C)(C#N)c1cc(Cn2cncn2)cc(C(C)(C)C#N)c1 [Anastrozole]	100
O=C(O)C1=CC(=C(c2ccc(O)c(C(=O)O)c2)c2ccc(O)c(C(=O)O)c2)C=CC1=O [Aurintricarboxylic acid]	106

Same assay, conditions: 1000 nM; 72 h

SMILES	cell viability [%]
CN(C)C(=O)[C@H](O)[C@H](Cc1ccccc1)NC(=O)c1cc2cc(Cl)ccc2[nH]1	104
COc1ccc(CNC(=O)Nc2ncc([N+](=O)[O-])s2)cc1	96.7
CCOP(=O)(OCC)C(=Cc1cc(C(C)(C)C)c(O)c(C(C)(C)C)c1)P(=O)(OCC)OCC	85.5
COc1ccc(-c2ccccc2)cc1NS(=O)(=O)c1cc(Cl)cc(Cl)c1O	95.6
C[C@H](NC(=O)c1sccc1OCc1ccc(Cl)cc1)c1ccccc1	95.8
O=C(O)c1cc(Cl)cc(Cl)c1O [3,5-Dichlorosalicylic Acid]	109
O=C(O)C(=O)CBr [3-bromopyruvic acid]	97.6
NS(=O)(=O)c1ccc([N+](=O)[O-])cc1 [4-Nitrobenzenesulfonamide]	98.1
Cc1ccccc1C(C(=O)NC1CCCCC1)N(C(=O)Cn1ccnc1C)c1cccc(F)c1 (configuration not stated) [AGI-5198]	92.1
CC(C)(C#N)c1cc(Cn2cncn2)cc(C(C)(C)C#N)c1 [Anastrozole]	90.5
O=C(O)C1=CC(=C(c2ccc(O)c(C(=O)O)c2)c2ccc(O)c(C(=O)O)c2)C=CC1=O [Aurintricarboxylic acid]	96

Same assay, conditions: 10000 nM; 72 h

SMILES	cell viability [%]
CN(C)C(=O)[C@H](O)[C@H](Cc1ccccc1)NC(=O)c1cc2cc(Cl)ccc2[nH]1	62.6
COc1ccc(CNC(=O)Nc2ncc([N+](=O)[O-])s2)cc1	122
CCOP(=O)(OCC)C(=Cc1cc(C(C)(C)C)c(O)c(C(C)(C)C)c1)P(=O)(OCC)OCC	73.6
COc1ccc(-c2ccccc2)cc1NS(=O)(=O)c1cc(Cl)cc(Cl)c1O	104
C[C@H](NC(=O)c1sccc1OCc1ccc(Cl)cc1)c1ccccc1	59.8
O=C(O)c1cc(Cl)cc(Cl)c1O [3,5-Dichlorosalicylic Acid]	87.3
O=C(O)C(=O)CBr [3-bromopyruvic acid]	105
NS(=O)(=O)c1ccc([N+](=O)[O-])cc1 [4-Nitrobenzenesulfonamide]	93
Cc1ccccc1C(C(=O)NC1CCCCC1)N(C(=O)Cn1ccnc1C)c1cccc(F)c1 (configuration not stated) [AGI-5198]	103
CC(C)(C#N)c1cc(Cn2cncn2)cc(C(C)(C)C#N)c1 [Anastrozole]	90
O=C(O)C1=CC(=C(c2ccc(O)c(C(=O)O)c2)c2ccc(O)c(C(=O)O)c2)C=CC1=O [Aurintricarboxylic acid]	102

Tested on: ML-2
Assay: as above
Conditions: 1 nM; 72 h
Procedure, shortened: as §1

SMILES	cell viability [%]
CN(C)C(=O)[C@H](O)[C@H](Cc1ccccc1)NC(=O)c1cc2cc(Cl)ccc2[nH]1	110
COc1ccc(CNC(=O)Nc2ncc([N+](=O)[O-])s2)cc1	91.8
CCOP(=O)(OCC)C(=Cc1cc(C(C)(C)C)c(O)c(C(C)(C)C)c1)P(=O)(OCC)OCC	95.1
COc1ccc(-c2ccccc2)cc1NS(=O)(=O)c1cc(Cl)cc(Cl)c1O	99.8
C[C@H](NC(=O)c1sccc1OCc1ccc(Cl)cc1)c1ccccc1	104
O=C(O)c1cc(Cl)cc(Cl)c1O [3,5-Dichlorosalicylic Acid]	97.4
O=C(O)C(=O)CBr [3-bromopyruvic acid]	91
NS(=O)(=O)c1ccc([N+](=O)[O-])cc1 [4-Nitrobenzenesulfonamide]	103
Cc1ccccc1C(C(=O)NC1CCCCC1)N(C(=O)Cn1ccnc1C)c1cccc(F)c1 (configuration not stated) [AGI-5198]	96.8
CC(C)(C#N)c1cc(Cn2cncn2)cc(C(C)(C)C#N)c1 [Anastrozole]	106
O=C(O)C1=CC(=C(c2ccc(O)c(C(=O)O)c2)c2ccc(O)c(C(=O)O)c2)C=CC1=O [Aurintricarboxylic acid]	107

Same assay, conditions: 10 nM; 72 h

SMILES	cell viability [%]
CN(C)C(=O)[C@H](O)[C@H](Cc1ccccc1)NC(=O)c1cc2cc(Cl)ccc2[nH]1	100
COc1ccc(CNC(=O)Nc2ncc([N+](=O)[O-])s2)cc1	101
CCOP(=O)(OCC)C(=Cc1cc(C(C)(C)C)c(O)c(C(C)(C)C)c1)P(=O)(OCC)OCC	98.1
COc1ccc(-c2ccccc2)cc1NS(=O)(=O)c1cc(Cl)cc(Cl)c1O	102
C[C@H](NC(=O)c1sccc1OCc1ccc(Cl)cc1)c1ccccc1	108
O=C(O)c1cc(Cl)cc(Cl)c1O [3,5-Dichlorosalicylic Acid]	99.8
O=C(O)C(=O)CBr [3-bromopyruvic acid]	78.4
NS(=O)(=O)c1ccc([N+](=O)[O-])cc1 [4-Nitrobenzenesulfonamide]	111
Cc1ccccc1C(C(=O)NC1CCCCC1)N(C(=O)Cn1ccnc1C)c1cccc(F)c1 (configuration not stated) [AGI-5198]	106
CC(C)(C#N)c1cc(Cn2cncn2)cc(C(C)(C)C#N)c1 [Anastrozole]	100
O=C(O)C1=CC(=C(c2ccc(O)c(C(=O)O)c2)c2ccc(O)c(C(=O)O)c2)C=CC1=O [Aurintricarboxylic acid]	97.7

Same assay, conditions: 100 nM; 72 h

SMILES	cell viability [%]
CN(C)C(=O)[C@H](O)[C@H](Cc1ccccc1)NC(=O)c1cc2cc(Cl)ccc2[nH]1	106
COc1ccc(CNC(=O)Nc2ncc([N+](=O)[O-])s2)cc1	107
CCOP(=O)(OCC)C(=Cc1cc(C(C)(C)C)c(O)c(C(C)(C)C)c1)P(=O)(OCC)OCC	134
COc1ccc(-c2ccccc2)cc1NS(=O)(=O)c1cc(Cl)cc(Cl)c1O	102
C[C@H](NC(=O)c1sccc1OCc1ccc(Cl)cc1)c1ccccc1	98.8
O=C(O)c1cc(Cl)cc(Cl)c1O [3,5-Dichlorosalicylic Acid]	95.6
O=C(O)C(=O)CBr [3-bromopyruvic acid]	102
NS(=O)(=O)c1ccc([N+](=O)[O-])cc1 [4-Nitrobenzenesulfonamide]	97.3
Cc1ccccc1C(C(=O)NC1CCCCC1)N(C(=O)Cn1ccnc1C)c1cccc(F)c1 (configuration not stated) [AGI-5198]	122
CC(C)(C#N)c1cc(Cn2cncn2)cc(C(C)(C)C#N)c1 [Anastrozole]	106
O=C(O)C1=CC(=C(c2ccc(O)c(C(=O)O)c2)c2ccc(O)c(C(=O)O)c2)C=CC1=O [Aurintricarboxylic acid]	97.5

Same assay, conditions: 1000 nM; 72 h

SMILES	cell viability [%]
CN(C)C(=O)[C@H](O)[C@H](Cc1ccccc1)NC(=O)c1cc2cc(Cl)ccc2[nH]1	120
COc1ccc(CNC(=O)Nc2ncc([N+](=O)[O-])s2)cc1	105
CCOP(=O)(OCC)C(=Cc1cc(C(C)(C)C)c(O)c(C(C)(C)C)c1)P(=O)(OCC)OCC	78.9
COc1ccc(-c2ccccc2)cc1NS(=O)(=O)c1cc(Cl)cc(Cl)c1O	84.5
C[C@H](NC(=O)c1sccc1OCc1ccc(Cl)cc1)c1ccccc1	106
O=C(O)c1cc(Cl)cc(Cl)c1O [3,5-Dichlorosalicylic Acid]	107
O=C(O)C(=O)CBr [3-bromopyruvic acid]	102
NS(=O)(=O)c1ccc([N+](=O)[O-])cc1 [4-Nitrobenzenesulfonamide]	102
Cc1ccccc1C(C(=O)NC1CCCCC1)N(C(=O)Cn1ccnc1C)c1cccc(F)c1 (configuration not stated) [AGI-5198]	103
CC(C)(C#N)c1cc(Cn2cncn2)cc(C(C)(C)C#N)c1 [Anastrozole]	90.5
O=C(O)C1=CC(=C(c2ccc(O)c(C(=O)O)c2)c2ccc(O)c(C(=O)O)c2)C=CC1=O [Aurintricarboxylic acid]	96.4

Same assay, conditions: 10000 nM; 72 h

SMILES	cell viability [%]
CN(C)C(=O)[C@H](O)[C@H](Cc1ccccc1)NC(=O)c1cc2cc(Cl)ccc2[nH]1	85
COc1ccc(CNC(=O)Nc2ncc([N+](=O)[O-])s2)cc1	104
CCOP(=O)(OCC)C(=Cc1cc(C(C)(C)C)c(O)c(C(C)(C)C)c1)P(=O)(OCC)OCC	80
COc1ccc(-c2ccccc2)cc1NS(=O)(=O)c1cc(Cl)cc(Cl)c1O	97.7
C[C@H](NC(=O)c1sccc1OCc1ccc(Cl)cc1)c1ccccc1	72.4
O=C(O)c1cc(Cl)cc(Cl)c1O [3,5-Dichlorosalicylic Acid]	93.1
O=C(O)C(=O)CBr [3-bromopyruvic acid]	99.4
NS(=O)(=O)c1ccc([N+](=O)[O-])cc1 [4-Nitrobenzenesulfonamide]	89.6
Cc1ccccc1C(C(=O)NC1CCCCC1)N(C(=O)Cn1ccnc1C)c1cccc(F)c1 (configuration not stated) [AGI-5198]	95.1
CC(C)(C#N)c1cc(Cn2cncn2)cc(C(C)(C)C#N)c1 [Anastrozole]	93
O=C(O)C1=CC(=C(c2ccc(O)c(C(=O)O)c2)c2ccc(O)c(C(=O)O)c2)C=CC1=O [Aurintricarboxylic acid]	92.9

Tested on: KG-1
Assay: as above
Conditions: 1 nM; 72 h
Procedure, shortened: as §1

SMILES	cell viability [%]
CN(C)C(=O)[C@H](O)[C@H](Cc1ccccc1)NC(=O)c1cc2cc(Cl)ccc2[nH]1	102
COc1ccc(CNC(=O)Nc2ncc([N+](=O)[O-])s2)cc1	90.5
CCOP(=O)(OCC)C(=Cc1cc(C(C)(C)C)c(O)c(C(C)(C)C)c1)P(=O)(OCC)OCC	96.3
COc1ccc(-c2ccccc2)cc1NS(=O)(=O)c1cc(Cl)cc(Cl)c1O	98.1
C[C@H](NC(=O)c1sccc1OCc1ccc(Cl)cc1)c1ccccc1	94
O=C(O)c1cc(Cl)cc(Cl)c1O [3,5-Dichlorosalicylic Acid]	107

From the supplement of paper PMC8671470
